biological target: T1, BRD9 (Homo sapiens, UniProt Q9H8M2); assay: HiBiT BRD9 degradation assay in 293T.166 (BRD9-HiBiT) cells; format: cell-based; parameters: endogenously expressing BRD9 with HiBiT fusion tag via CRISPR; host or cells: 293T.166 (BRD9-HiBiT), also expressing LgBiT ectopically; details: Table 1; 293T.166 cells, 2.0 hours; class symbols; read-out: HiBiT-Degradation 293T.166 BRD9 2.0 hours (DC50)
T1 sequence (Q9H8M2 1-597): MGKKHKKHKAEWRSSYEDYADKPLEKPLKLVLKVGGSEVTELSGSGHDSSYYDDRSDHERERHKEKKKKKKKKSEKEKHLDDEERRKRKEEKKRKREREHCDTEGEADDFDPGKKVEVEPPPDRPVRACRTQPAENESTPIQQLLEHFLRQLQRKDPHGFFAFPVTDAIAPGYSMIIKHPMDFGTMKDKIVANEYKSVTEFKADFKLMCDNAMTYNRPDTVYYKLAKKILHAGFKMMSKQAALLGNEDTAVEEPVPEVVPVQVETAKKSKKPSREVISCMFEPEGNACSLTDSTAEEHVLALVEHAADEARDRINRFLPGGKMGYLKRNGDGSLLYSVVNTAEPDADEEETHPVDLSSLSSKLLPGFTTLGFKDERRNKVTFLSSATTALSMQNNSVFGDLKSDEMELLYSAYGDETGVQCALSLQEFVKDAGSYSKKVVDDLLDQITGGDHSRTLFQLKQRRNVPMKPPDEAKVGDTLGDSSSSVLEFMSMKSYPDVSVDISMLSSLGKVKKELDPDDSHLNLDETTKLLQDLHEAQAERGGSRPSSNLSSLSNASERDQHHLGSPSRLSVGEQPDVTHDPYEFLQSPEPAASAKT
Procedure: Selected compounds were tested in a BRD9 degradation assay using the HiBit Method.
Dulbecco's modified Eagle medium (DMEM) without phenol red and fetal bovine serum (FBS) were purchased from Gibco (Grand Island, N.Y., USA). Nano-Glo® HiBiT Lytic Assay System was purchased from Promega (Madison, Wis., USA). 293T.166 (BRD9-HiBiT) cell line, endogenously expressing BRD9 with HiBiT fusion tag via CRISPR and ectopically expressing LgBiT tag, was purchased from Promega (Madison, Wis., USA). 293T.167 (BRD7-HiBiT) cell line, endogenously expressing BRD7 with HiBiT fusion tag via CRISPR and ectopically expressing LgBiT tag, was purchased from Promega (Madison, Wis., USA). 293T.92 (BRD4-HiBiT) cell line, endogenously expressing BRD4 with HiBiT fusion tag via CRISPR and ectopically expressing LgBiT tag, was generated in-house. Cell culture flasks and 384-well microplates were acquired from VWR (Radnor, Pa., USA).
BRD9 degradation was determined based on quantification of luminescent signal using Nano-Glo® HiBiT Lytic Assay kit. Test compounds were added to the 384-well plate from a top concentration of 10 μM with 11 points, half log titration in duplicates. 293T.166 cells were added into 384-well plates at a cell density of 10,000 cells per well. The plates were kept at 37° C. with 5% CO2 for 2 hours. BRD7 and BRD4 degradation was similarly determined with 293T.167 cells and 293T.92 cells, respectively. The cells treated in the absence of the test compound were the negative control and the cells without Nano-Glo® HiBiT Lytic reagent were the positive control. After 2-hour incubation, Nano-Glo® HiBiT Lytic Assay reagents were added to the cells. Luminescence was acquired on EnVision™ Multilabel Reader (PerkinElmer, Santa Clara, Calif., USA).

Row | Compound | DC50 [µM]
1 | COc1cc(-c2cn(C)c(=O)c3[nH]ncc23)cc(OC)c1CN1CCN(C(=O)CN2CCC(c3ccc(NC4CCC(=O)NC4=O)cc3)CC2)CC1 (single isomer, unassigned) [Compound 2] | < 0.1
2 | COc1cc(-c2cn(C)c(=O)c3[nH]ncc23)cc(OC)c1CN1CCN(C(=O)CN2CCC(c3ccc(NC4CCC(=O)NC4=O)cc3)CC2)CC1 (single isomer, unassigned) [Compound 3] | < 0.1
3 | COc1cc(-c2cn(C)c(=O)c3cnccc23)cc(OC)c1CN1CCN(C(=O)CC2CCN(c3ccc(NC4CCC(=O)NC4=O)cc3C(F)(F)F)CC2)CC1 (single isomer, unassigned) [Compound 55] | < 0.1
4 | COc1cc(-c2cn(C)c(=O)c3cnccc23)cc(OC)c1CN1CCN(C(=O)CC2CCN(c3ccc(NC4CCC(=O)NC4=O)cc3C(F)(F)F)CC2)CC1 (single isomer, unassigned) [Compound 56] | < 0.1
5 | COc1cc(-c2cn(C)c(=O)c(C)c2C)cc(OC)c1CN1CCC(N2CCN(c3ccc(NC4CCC(=O)NC4=O)cc3F)CC2)C(F)(F)C1 (single isomer, unassigned) [Compound 173, 3-[4-[4-[1-[[2,6-dimethoxy-4-(1,4,5-trimethyl-6-oxo-3-pyridyl)phenyl]methyl]-3,3-difluoro-4-piperidyl]piperazin-1-yl]-3-fluoro-anilino]piperidine-2,6-dione] | < 0.1
6 | COc1cc(-c2cn(C)c(=O)c(C)c2C)cc(OC)c1CN1CCC(N2CCN(c3ccc(NC4CCC(=O)NC4=O)cc3F)CC2)C(F)(F)C1 (single isomer, unassigned) [Compound 174, 3-[4-[4-[1-[[2,6-dimethoxy-4-(1,4,5-trimethyl-6-oxo-3-pyridyl)phenyl]methyl]-3,3-difluoro-4-piperidyl]piperazin-1-yl]-3-fluoro-anilino]piperidine-2,6-dione] | < 0.1
7 | COc1cc(-c2cn(C)c(=O)c(C)c2C)cc(OC)c1CN1CCC(N2CCN(c3ccc(NC4CCC(=O)NC4=O)cc3F)CC2)C(F)(F)C1 (single isomer, unassigned) [Compound 175, 3-[4-[4-[1-[[2,6-dimethoxy-4-(1,4,5-trimethyl-6-oxo-3-pyridyl)phenyl]methyl]-3,3-difluoro-4-piperidyl]piperazin-1-yl]-3-fluoro-anilino]piperidine-2,6-dione] | < 0.1
8 | COc1cc(-c2cn(C)c(=O)c3cnccc23)cc(Cl)c1CN1CCC(N2CCN(c3ccc(NC4CCC(=O)NC4=O)cc3F)CC2)C(F)(F)C1 (single isomer, unassigned) [Compound 178, 3-[4-[4-[1-[[2-chloro-6-methoxy-4-(2-methyl-1-oxo-2,7-naphthyridin-4-yl)phenyl]methyl]-3,3-difluoro-4-piperidyl]piperazin-1-yl]-3-fluoro-anilino]piperidine-2,6-dione] | < 0.1
9 | COc1cc(-c2cn(C)c(=O)c3cnccc23)cc(Cl)c1CN1CCC(N2CCN(c3ccc(NC4CCC(=O)NC4=O)cc3F)CC2)C(F)(F)C1 (single isomer, unassigned) [Compound 179, 3-[4-[4-[1-[[2-chloro-6-methoxy-4-(2-methyl-1-oxo-2,7-naphthyridin-4-yl)phenyl]methyl]-3,3-difluoro-4-piperidyl]piperazin-1-yl]-3-fluoro-anilino]piperidine-2,6-dione] | < 0.1
10 | COc1cc(-c2cn(C)c(=O)c3cnccc23)cc(Cl)c1CN1CCC(N2CCN(c3ccc(NC4CCC(=O)NC4=O)cc3F)CC2)C(F)(F)C1 (single isomer, unassigned) [Compound 180, 3-[4-[4-[1-[[2-chloro-6-methoxy-4-(2-methyl-1-oxo-2,7-naphthyridin-4-yl)phenyl]methyl]-3,3-difluoro-4-piperidyl]piperazin-1-yl]-3-fluoro-anilino]piperidine-2,6-dione] | < 0.1
11 | COc1cc(-c2cn(C)c(=O)c3cnccc23)cc(Cl)c1CN1CCC(N2CCN(c3ccc(NC4CCC(=O)NC4=O)cc3F)CC2)C(F)(F)C1 (single isomer, unassigned) [Compound 181, 3-[4-[4-[1-[[2-chloro-6-methoxy-4-(2-methyl-1-oxo-2,7-naphthyridin-4-yl)phenyl]methyl]-3,3-difluoro-4-piperidyl]piperazin-1-yl]-3-fluoro-anilino]piperidine-2,6-dione] | < 0.1
12 | COc1cc(-c2cn(C)c(=O)c3[nH]ncc23)cc(Cl)c1CN1CCC(CC(=O)N2CCC(c3ccc(NC4CCC(=O)NC4=O)cc3)CC2)C(F)(F)C1 (single isomer, unassigned) [Compound 203, 3-[4-[1-[2-[1-[[2-chloro-6-methoxy-4-(6-methyl-7-oxo-1H-pyrazolo[3,4-c]pyridin-4-yl)phenyl]methyl]-3,3-difluoro-4-piperidyl]acetyl]-4-piperidyl]anilino]piperidine-2,6-dione] | < 0.1
13 | COc1cc(-c2cn(C)c(=O)c3[nH]ncc23)cc(Cl)c1CN1CCC(CC(=O)N2CCC(c3ccc(NC4CCC(=O)NC4=O)cc3)CC2)C(F)(F)C1 (single isomer, unassigned) [Compound 204] | < 0.1
14 | Cc1c(-c2ccc(C(=O)N3CCC(C4CCN(c5ccc(NC6CCC(=O)NC6=O)cc5F)CC4)CC3)c(OC(F)(F)F)c2)cn(C)c(=O)c1C (single isomer, unassigned) [Compound 214, 3-[3-fluoro-4-[4-[1-[2-(trifluoromethoxy)-4-(1,4,5-trimethyl-6-oxo-3-pyridyl)benzoyl]-4-piperidyl]-1-piperidyl]anilino]piperidine-2,6-dione] | < 0.1

same assay, conditions: Table 1; 293T.166 cells, 2.0 hours; numeric bound; read-out: HiBiT-Degradation 293T.166 BRD9 2.0 hours (DC50)

Row | Compound | DC50 [µM]
15 | Cc1c(-c2ccc(C(=O)N3CCC(C4CCN(c5ccc(NC6CCC(=O)NC6=O)cc5F)CC4)CC3)c(OC(F)(F)F)c2)cn(C)c(=O)c1C (single isomer, unassigned) [Compound 213, 3-[3-fluoro-4-[4-[1-[2-(trifluoromethoxy)-4-(1,4,5-trimethyl-6-oxo-3-pyridyl)benzoyl]-4-piperidyl]-1-piperidyl]anilino]piperidine-2,6-dione] | > 0.8

same assay, conditions: Table 2; 293T.166 cells, 2.0 hours; class symbols; read-out: HiBiT-Degradation 293T.166 BRD9 2.0 hours (DC50)

Row | Compound | DC50 [µM]
16 | COc1cc(-c2cn(C)c(=O)c(C)c2C)cc(Cl)c1CN1CCc2c(CC3CCN(c4ccc(NC5CCC(=O)NC5=O)cc4F)CC3)cccc2C1 (single isomer, unassigned) [Compound 250] | < 0.1
17 | COc1cc(-c2cn(C)c(=O)c(C)c2C)cc(Cl)c1CN1CCC(C2CCN(c3ccc(NC4CCC(=O)NC4=O)cc3F)CC2)C(F)(F)C1 (single isomer, unassigned) [Compound 256] | < 0.1
18 | COc1cc(-c2cn(C)c(=O)c(C)c2C)cc(Cl)c1CN1CCC(C2CCN(c3ccc(NC4CCC(=O)NC4=O)cc3F)CC2)C(F)(F)C1 (single isomer, unassigned) [Compound 257] | < 0.1
19 | COc1cc(-c2cn(C)c(=O)c(C)c2C)cc(Cl)c1CN1CCC(C2CCN(c3ccc(NC4CCC(=O)NC4=O)cc3F)CC2)C(F)(F)C1 (single isomer, unassigned) [Compound 258] | 0.1 to 0.5
20 | COc1cc(-c2cn(C)c(=O)c(C)c2C)cc(Cl)c1CN1CCC(C2CCN(c3ccc(NC4CCC(=O)NC4=O)cc3F)CC2)C(F)(F)C1 (single isomer, unassigned) [Compound 259] | < 0.1

same assay, conditions: Table 2; 293T.166 cells, 2.0 hours; numeric bound; read-out: HiBiT-Degradation 293T.166 BRD9 2.0 hours (DC50)

Row | Compound | DC50 [µM]
21 | COc1cc(-c2cn(C)c(=O)c(C)c2C)cc(Cl)c1CN1CCc2c(CC3CCN(c4ccc(NC5CCC(=O)NC5=O)cc4F)CC3)cccc2C1 (single isomer, unassigned) [Compound 249] | > 0.8
